Source: patent US20260297083A1, “SUBSTITUTED ACETYLENE COMPOUND DERIVATIVES AND THEIR PHARMACEUTICAL USE” (AVELOS THERAPEUTICS INC., priority 2023, published 2026)

System: DLD-1 BRCA2(−/−) Cell
Experiment: Cell viability assay (Resazurin) in DLD1-BRCA2 cells
Assay type: cell-based
Details: Homo sapiens, DLD-1, 336 h, 14 days, 1,500 cells/well, final DMSO 1%
Summary of the method: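 DLD1-BRCA2 KG cells seeded at 1,500/well (parental 600/well) in RPMI-1640 with 10% FBS, compound added after 4 h (1% DMSO), media replaced every 3-4 days over 14 days at 37° C. Viability read by resazurin (0.1 mg/ml, 4 h) fluorescence at Ex/Em 560/590 nm; IC50 fitted.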

Compound	IC50 [nM]
Cc1cc(C(F)(F)F)cc(N2[C@H](C(=O)N(CC#Cc3ncc(C(=O)N4C5CCC4COC5)cn3)c3ccc(F)c(C)c3)CCS2(=O)=O)n1 [Example 83, (3S)-N-(3-(5-(3-oxa-8-azabicyclo[3.2.1]octane-8-carbonyl)pyrimidin-2-yl)prop-2-yn-1-yl)-N-(4-fluoro-3-methylphenyl)-2-(6-methyl-4-(trifluoromethyl)pyridin-2-yl)isothiazolidine-3-carboxamide 1,1-dioxide]	< 1000
Cc1cc(C(F)(F)F)cc(N2[C@H](C(=O)N(CC#Cc3cncc(C(=O)N4C[C@H](C)N[C@@H](C)C4)n3)c3ccc(F)c(C)c3)CCS2(=O)=O)n1 [Example 74, (S)-N-(3-(6-((3S,5S)-3,5-dimethylpiperazine-1-carbonyl)pyrazin-2-yl)prop-2-yn-1-yl)-N-(4-fluoro-3-methylphenyl)-2-(6-methyl-4-(trifluoromethyl)pyridin-2-yl)isothiazolidine-3-carboxamide 1,1-dioxide]	< 1000
CC(=O)Nc1cnc(C#CCN(C(=O)[C@@H]2CCS(=O)(=O)N2c2cc(C(F)(F)F)cc(C)n2)c2ccc(F)c(C)c2)cn1 [Example 34, (S)-N-(3-(5-acetamidopyrazin-2-yl)prop-2-yn-1-yl)-N-(4-fluoro-3-methylphenyl)-2-(6-methyl-4-(trifluoromethyl)pyridin-2-yl)isothiazolidine-3-carboxamide 1,1-dioxide]	1100 to 5000
Cc1cc(C(F)(F)F)cc(N2[C@H](C(=O)N(CC#Cc3cncc(C(=O)N4CCOCC4)n3)c3ccc(F)c(C)c3)CCS2(=O)=O)n1 [Example 70, (S)-N-(4-fluoro-3-methylphenyl)-2-(6-methyl-4-(trifluoromethyl)pyridin-2-yl)-N-(3-(6-(morpholine-4-carbonyl)pyrazin-2-yl)prop-2-yn-1-yl)isothiazolidine-3-carboxamide 1,1-dioxide]	1100 to 5000
Cc1cc(C(F)(F)F)cc(N2[C@H](C(=O)N(CC#Cc3nc(C(N)=O)co3)c3ccc(F)c(C)c3)CCS2(=O)=O)n1 [Example 104, (S)-2-(3-(N-(4-fluoro-3-methylphenyl)-2-(6-methyl-4-(trifluoromethyl)pyridin-2-yl)-1,1-dioxidoisothiazolidine-3-carboxamido)prop-1-yn-1-yl)oxazole-4-carboxamide]	< 1000
Cc1cc(C(F)(F)F)cc(N2[C@H](C(=O)N(CC#Cc3ccc(N4CCOCC4)nn3)c3ccc(F)c(C)c3)CCS2(=O)=O)n1 [Example 23, (S)-N-(4-fluoro-3-methylphenyl)-2-(6-methyl-4-(trifluoromethyl)pyridin-2-yl)-N-(3-(6-morpholinopyridazin-3-yl)prop-2-yn-1-yl)isothiazolidine-3-carboxamide 1,1-dioxide]	1100 to 5000
Cc1cc(C(F)(F)F)cc(N2[C@@H](C(=O)N(CC#Cc3cnc(N4C[C@H](C)N(C(C)C)[C@@H](C)C4)cn3)c3ccc(F)c(C)c3)CCS2(=O)=O)n1 [Example 54, (R)-N-(4-fluoro-3-methylphenyl)-N-(3-(5-((3S,5S)-4-isopropyl-3,5-dimethylpiperazin-1-yl)pyrazin-2-yl)prop-2-yn-1-yl)-2-(6-methyl-4-(trifluoromethyl)pyridin-2-yl)isothiazolidine-3-carboxamide 1,1-dioxide]	> 5100
Cc1cc(C(F)(F)F)cc(N2[C@H](C(=O)N(CC#Cc3cccc(OC(C)C)n3)c3ccc(F)c(C)c3)CCS2(=O)=O)n1 [Example 88, (S)-N-(4-fluoro-3-methylphenyl)-N-(3-(6-isopropoxypyridin-2-yl)prop-2-yn-1-yl)-2-(6-methyl-4-(trifluoromethyl)pyridin-2-yl)isothiazolidine-3-carboxamide 1,1-dioxide]	1100 to 5000
Cc1cc(C(F)(F)F)cc(N2C(=O)CC[C@H]2C(=O)N(CC#Cc2ccc(F)cn2)c2ccc(F)c(C)c2)n1 [Example 8, (S)-N-(4-fluoro-3-methylphenyl)-N-(3-(5-fluoropyridin-2-yl)prop-2-yn-1-yl)-1-(6-methyl-4-(trifluoromethyl)pyridin-2-yl)-5-oxopyrrolidine-2-carboxamide]	< 1000
Cc1cc(C(F)(F)F)cc(N2C(=O)CC[C@H]2C(=O)N(CC#Cc2cccc(=O)[nH]2)c2ccc(F)c(C)c2)n1 [Example 7, (2S)-N-(4-fluoro-3-methyl-phenyl)-1-[6-methyl-4-(trifluoromethyl)-2-pyridyl]-5-oxo-N-[3-(6-oxo-1H-pyridin-2-yl)prop-2-ynyl]pyrrolidine-2-carboxamide]	< 1000
Cc1cc(C(F)(F)F)cc(N2[C@H](C(=O)N(CC#Cc3ccc(C(=O)N(C)C)nc3)c3ccc(F)c(C)c3)CCS2(=O)=O)n1 [Example 111, (S)-N-(3-(6-(dimethylcarbamoyl)pyridin-3-yl)prop-2-yn-1-yl)-N-(4-fluoro-3-methylphenyl)-2-(6-methyl-4-(trifluoromethyl)pyridin-2-yl)isothiazolidine-3-carboxamide 1,1-dioxide]	< 1000
Cc1cc(C(F)(F)F)cc(N2[C@H](C(=O)N(CC#Cc3cnc(-c4c[nH]nn4)cn3)c3ccc(F)c(C)c3)CCS2(=O)=O)n1 [Example 56, (S)-N-(3-(5-(1H-1,2,3-triazol-4-yl)pyrazin-2-yl)prop-2-yn-1-yl)-N-(4-fluoro-3-methylphenyl)-2-(6-methyl-4-(trifluoromethyl)pyridin-2-yl)isothiazolidine-3-carboxamide 1,1-dioxide]	< 1000
Cc1cc(C(F)(F)F)cc(N2[C@H](C(=O)N(CC#Cc3ccc(N)nn3)c3ccc(F)c(C)c3)CCS2(=O)=O)n1 [Example 18, (S)-N-(3-(6-aminopyridazin-3-yl)prop-2-yn-1-yl)-N-(4-fluoro-3-methylphenyl)-2-(6-methyl-4-(trifluoromethyl)pyridin-2-yl)isothiazolidine-3-carboxamide 1,1-dioxide]	< 1000
Cc1cc(C(F)(F)F)cc(N2[C@H](C(=O)N(CC#Cc3cnc(C(N)=O)c(F)c3)c3ccc(F)c(C)c3)CCS2(=O)=O)n1 [Example 96, (S)-N-(3-(6-carbamoyl-5-fluoropyridin-3-yl)prop-2-yn-1-yl)-N-(4-fluoro-3-methylphenyl)-2-(6-methyl-4-(trifluoromethyl)pyridin-2-yl)isothiazolidine-3-carboxamide 1,1-dioxide]	< 1000
Cc1cc(C(F)(F)F)cc(N2[C@H](C(=O)N(CC#Cc3cnc(C(N)=O)nc3)c3ccc(F)c(C)c3)CCS2(=O)=O)n1 [Example 78, (S)-N-(3-(2-carbamoylpyrimidin-5-yl)prop-2-yn-1-yl)-N-(4-fluoro-3-methylphenyl)-2-(6-methyl-4-(trifluoromethyl)pyridin-2-yl)isothiazolidine-3-carboxamide 1,1-dioxide]	< 1000
CCN1CCN(CC#CCN(C(=O)[C@@H]2CCC(=O)N2c2cc(C(F)(F)F)cc(C)n2)c2ccc(F)c(C)c2F)CC1 [Example 13, (S)—N-(2,4-difluoro-3-methylphenyl)-N-(4-(4-ethylpiperazin-1-yl)but-2-yn-1-yl)-1-(6-methyl-4-(trifluoromethyl)pyridin-2-yl)-5-oxopyrrolidine-2-carboxamide]	1100 to 5000
CCN(CC)c1ccc(C#CCN(C(=O)[C@@H]2CCS(=O)(=O)N2c2cc(C(F)(F)F)cc(C)n2)c2ccc(F)c(C)c2)nn1 [Example 25, (S)-N-(3-(6-(diethylamino)pyridazin-3-yl)prop-2-yn-1-yl)-N-(4-fluoro-3-methylphenyl)-2-(6-methyl-4-(trifluoromethyl)pyridin-2-yl)isothiazolidine-3-carboxamide 1,1-dioxide]	1100 to 5000
Cc1cc(C(F)(F)F)cc(N2[C@H](C(=O)N(CC#Cc3cnc(N4CCOCC4)c(N)n3)c3ccc(F)c(C)c3)CCS2(=O)=O)n1 [Example 44, (S)-N-(3-(6-amino-5-morpholinopyrazin-2-yl)prop-2-yn-1-yl)-N-(4-fluoro-3-methylphenyl)-2-(6-methyl-4-(trifluoromethyl)pyridin-2-yl)isothiazolidine-3-carboxamide 1,1-dioxide]	1100 to 5000
Cc1cc(C(F)(F)F)cc(N2[C@H](C(=O)N(CC#Cc3cc(N4CCOCC4)nc(C(F)(F)F)n3)c3ccc(F)c(C)c3)CCS2(=O)=O)n1 [Example 76, (S)-N-(4-fluoro-3-methylphenyl)-2-(6-methyl-4-(trifluoromethyl)pyridin-2-yl)-N-(3-(6-morpholino-2-(trifluoromethyl)pyrimidin-4-yl)prop-2-yn-1-yl)isothiazolidine-3-carboxamide 1,1-dioxide]	< 1000
Cc1cc(C(F)(F)F)cc(N2[C@H](C(=O)N(CC#Cc3cnc(N4CCOCC4)c(C(F)(F)F)n3)c3ccc(F)c(C)c3)CCS2(=O)=O)n1 [Example 46, (S)-N-(4-fluoro-3-methylphenyl)-2-(6-methyl-4-(trifluoromethyl)pyridin-2-yl)-N-(3-(5-morpholino-6-(trifluoromethyl)pyrazin-2-yl)prop-2-yn-1-yl)isothiazolidine-3-carboxamide 1,1-dioxide]	1100 to 5000
Cc1cc(C(F)(F)F)cc(N2[C@H](C(=O)N(CC#Cc3cncc(N4CCOCC4)n3)c3ccc(F)c(C)c3)CCS2(=O)=O)n1 [Example 42, (S)-N-(4-fluoro-3-methylphenyl)-2-(6-methyl-4-(trifluoromethyl)pyridin-2-yl)-N-(3-(6-morpholinopyrazin-2-yl)prop-2-yn-1-yl)isothiazolidine-3-carboxamide 1,1-dioxide]	< 1000
Cc1cc(C(F)(F)F)cc(N2[C@H](C(=O)N(CC#Cc3ccc(=O)[nH]n3)c3ccc(F)c(C)c3)CCS2(=O)=O)n1 [Example 26, (S)-N-(4-fluoro-3-methylphenyl)-2-(6-methyl-4-(trifluoromethyl)pyridin-2-yl)-N-(3-(6-oxo-1,6-dihydropyridazin-3-yl)prop-2-yn-1-yl)isothiazolidine-3-carboxamide 1,1-dioxide]	< 1000
Cc1cc(C(F)(F)F)cc(N2[C@H](C(=O)N(CC#Cc3ncc(C(N)=O)cn3)c3ccc(F)c(C)c3)CCS2(=O)=O)n1 [Example 81, (S)-N-(3-(5-carbamoylpyrimidin-2-yl)prop-2-yn-1-yl)-N-(4-fluoro-3-methylphenyl)-2-(6-methyl-4-(trifluoromethyl)pyridin-2-yl)isothiazolidine-3-carboxamide 1,1-dioxide]	< 1000
